The values that follow come from patent US20240109873A1, “ANTAGONISTS OF THE MUSCARINIC ACETYLCHOLINE RECEPTOR M4” (Vanderbilt University, priority 2020, published 2024).

What is called IC50 is the midpoint of a concentration-inhibition curve.

This assay concerns the target T1, human mAChR M4 (Homo sapiens, UniProt P08173).
T1 construct: expressed in transfected cells; host or cells: CHO-K1 (ATCC), co-transfected with chimeric G protein Gqi5
T1 sequence (P08173 1-479): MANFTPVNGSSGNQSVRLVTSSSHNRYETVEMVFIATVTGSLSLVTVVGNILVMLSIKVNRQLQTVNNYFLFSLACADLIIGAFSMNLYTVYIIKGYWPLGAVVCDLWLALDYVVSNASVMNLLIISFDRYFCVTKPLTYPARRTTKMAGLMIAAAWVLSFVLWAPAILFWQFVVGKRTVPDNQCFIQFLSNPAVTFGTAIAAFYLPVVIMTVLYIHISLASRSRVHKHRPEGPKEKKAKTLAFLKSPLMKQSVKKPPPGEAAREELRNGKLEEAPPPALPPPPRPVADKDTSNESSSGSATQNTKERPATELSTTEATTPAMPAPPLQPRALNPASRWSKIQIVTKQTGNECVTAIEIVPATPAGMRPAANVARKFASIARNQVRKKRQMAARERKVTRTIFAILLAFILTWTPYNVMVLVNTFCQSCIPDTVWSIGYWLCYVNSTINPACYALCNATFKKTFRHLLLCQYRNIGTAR
Description: mAChR M4 cell-based functional assay (calcium flux, antagonism of EC80 acetylcholine response, M4/Gqi5/CHO-K1 cells). The following applies: for remaining activity at 30 µM: CHO-K1, % ACh maximum at 30 μM, read-out: Human M4 Emin; for IC50: decrease of the response elicited by an EC80 concentration of acetylcholine, CHO-K1 cells, Gqi5. The protocol: Human or rat M4 cDNA, along with the chimeric G protein Gqi5, were transfected into Chinese hamster ovary (CHO-K1) cells purchased from the American Type Culture Collection using Lipofectamine2000. M4/Gqi5/CHO cells were grown in Ham's F-12 medium containing 10% heat-inactivated fetal bovine serum (FBS), 20 mM HEPES, 500 μg/mL G418 sulfate, and 200 μg/mL Hygromycin B.
For high throughput measurement of agonist-evoked increases in intracellular calcium, CHO-K1 cells stably expressing muscarinic receptors were plated in growth medium lacking G418 and hygromycin at 15,000 cells/20 μL/well in Greiner 384-well black-walled, tissue culture (TC)-treated, clear-bottom plates (VWR). Cells were incubated overnight at 37° C. and 5% CO2. The next day, cells were washed using an ELX 405 (BioTek) with assay buffer; the final volume was then aspirated to 20 μL. Next, 20 μL of a 2.3 μM stock of Fluo-4/acetoxymethyl ester (Invitrogen, Carlsbad, CA), prepared as a 2.3 mM stock in DMSO and mixed in a 1:1 ratio with 10% (w/v) Pluronic F-127 and diluted in assay buffer, was added to the wells and the cell plates were incubated for 50 min at 37° C. and 5% CO2. Dye was removed by washing with the ELX 405 and the final volume was aspirated to 20 μL. Compound master plates were formatted in a 10-point concentration-response curve (CRC) format (1:3 dilutions) in 100% DMSO with a starting concentration of 10 or 1 mM using a BRAVO liquid handler (Agilent). Test compound CRCs were then transferred to daughter plates (240 nL) using the Echo acoustic plate reformatter (Labcyte, Sunnyvale, CA) and then diluted into assay buffer (40 μL) to a 2× stock using a Thermo Fisher Combi (Thermo Fisher Scientific, Waltham, MA).
Calcium flux was measured using the Functional Drug Screening System (FDSS) 6000 or 7000 (Hamamatsu Corporation, Tokyo, Japan) as an increase in the fluorescent static ratio. Compounds were applied to cells (20 μL, 2×) using the automated system of the FDSS at 2 seconds into the protocol and the data were collected at 1 Hz. At 143 s, 10 μL of an EC20 concentration of the muscarinic receptor agonist acetylcholine was added (5×), followed by the addition of 12 μL of an EC80 concentration of acetylcholine at the 268 s time point (5×). Agonist activity was analyzed as a concentration-dependent increase in calcium mobilization upon compound addition. Positive allosteric modulator activity was analyzed as a concentration-dependent increase in the EC20 acetylcholine response. Antagonist activity was analyzed as a concentration-dependent decrease in the EC80 acetylcholine response; for the purposes of the tables herein, an IC50 (inhibitory concentration 50) was calculated as a concentration-dependent decrease of the response elicited by an EC80 concentration of acetylcholine. Concentration-response curves were generated using a four-parameter logistical equation in XLFit curve fitting software (IDBS, Bridgewater, NJ) for Excel (Microsoft, Redmond, WA) or Prism (GraphPad Software, Inc., San Diego, CA) or the Dotmatics software platform (Dotmatics, Bishop's Stortford, UK). […]
Compounds were synthesized as described above. Activity (IC50 and Emin) was determined in the mAChR M4 cell-based functional assay as described above and the data are shown in Table 2.

`[2H]C([2H])(C1CCOCC1)N1C[C@H]2C[C@H](Nc3nnc(-c4cnccc4C(F)(F)F)cc3OC)C[C@H]2C1` [Compound 15, (3aR,5s,6aS)-N-(4-methoxy-6-(4-(trifluoromethyl)pyridin-3-yl)pyridazin-3-yl)-2-((tetrahydro-2H-pyran-4-yl)methyl-d2)octahydrocyclopenta[c]pyrrol-5-amine]: the remaining activity at 30 µM was determined as 7% and the IC50 was 2.4 nM.

With `[2H]C([2H])(C1CCOCC1)N1C[C@H]2C[C@H](Nc3nnc(-c4cnccc4C(F)(F)F)cc3C)C[C@H]2C1` [Compound 16, (3aR,5s,6aS)-N-(4-methyl-6-(4-(trifluoromethyl)pyridin-3-yl)pyridazin-3-yl)-2-((tetrahydro-2H-pyran-4-yl)methyl-d2)octahydrocyclopenta[c]pyrrol-5-amine], the remaining activity at 30 µM was 4% and the IC50 was found to be 1.5 nM.

As for `[2H]C([2H])(C1CCOCC1)N1C[C@H]2C[C@H](Nc3ccc(-c4cnc(C(F)(F)F)cc4C(F)(F)F)nn3)C[C@H]2C1` [Compound 17, (3aR,5s,6aS)-N-(6-(4,6-bis(trifluoromethyl)pyridin-3-yl)pyridazin-3-yl)-2-((tetrahydro-2H-pyran-4-yl)methyl-d2)octahydrocyclopenta[c]pyrrol-5-amine], the remaining activity at 30 µM was 26% and the IC50 is 2.8 nM.

For the compound `[2H]C1([2H])CC(C([2H])([2H])N2C[C@H]3C[C@H](Nc4nnc(-c5cnccc5C(F)(F)F)cc4C)C[C@H]3C2)CC([2H])([2H])O1` [Compound 18, (3aR,5s,6aS)-N-(4-methyl-6-(4-(trifluoromethyl)pyridin-3-yl)pyridazin-3-yl)-2-((tetrahydro-2H-pyran-4-yl-2,2,6,6-d4)methyl-d2)octahydrocyclopenta[c]pyrrol-5-amine], the remaining activity at 30 µM came out at 4% and the 50% inhibitory concentration (IC50) amounted to 1.1 nM.

Turning to `[2H]C1([2H])CC(CN2C[C@H]3C[C@H](Nc4nnc(-c5cnccc5C(F)(F)F)cc4C)C[C@H]3C2)CC([2H])([2H])O1` [Compound 19, (3aR,5s,6aS)-N-(4-methyl-6-(4-(trifluoromethyl)pyridin-3-yl)pyridazin-3-yl)-2-((tetrahydro-2H-pyran-4-yl-2,2,6,6-d4)methyl)octahydrocyclopenta[c]pyrrol-5-amine], the remaining activity at 30 µM was found to be 3% and the IC50 was 1.3 nM.

As to `[2H]C([2H])(C1CCOCC1(C)C)N1C[C@H]2C[C@H](Nc3nnc(-c4cnccc4C(F)(F)F)cc3C)C[C@H]2C1` (stereo partly drawn) [Compound 20, (3aR,5s,6aS)-2-((3,3-dimethyltetrahydro-2H-pyran-4-yl)methyl-d2)-N-(4-methyl-6-(4-(trifluoromethyl)pyridin-3-yl)pyridazin-3-yl)octahydrocyclopenta[c]pyrrol-5-amine], the remaining activity at 30 µM is 2% and the IC50 came out at 6.4 nM.

For the compound `[2H]C([2H])(C1CCOCC1(C)C)N1C[C@H]2C[C@H](Nc3nnc(-c4cnccc4C(F)(F)F)cc3OC)C[C@H]2C1` (stereo partly drawn) [Compound 21, (3aR,5s,6aS)-2-((3,3-dimethyltetrahydro-2H-pyran-4-yl)methyl-d2)-N-(4-methoxy-6-(4-(trifluoromethyl)pyridin-3-yl)pyridazin-3-yl)octahydrocyclopenta[c]pyrrol-5-amine], the remaining activity at 30 µM came out at 2% and the IC50 was 11 nM.

`[2H]C1([2H])CC(C([2H])([2H])N2C[C@H]3C[C@H](Nc4nnc(-c5cnccc5C(F)(F)F)cc4OC)C[C@H]3C2)CC([2H])([2H])O1` [Compound 22, (3aR,5s,6aS)-N-(4-methoxy-6-(4-(trifluoromethyl)pyridin-3-yl)pyridazin-3-yl)-2-((tetrahydro-2H-pyran-4-yl-2,2,6,6-d4)methyl-d2)octahydrocyclopenta[c]pyrrol-5-amine]: the remaining activity at 30 µM stood at 2% and the IC50 amounted to 4.5 nM.

Take `[2H]C1([2H])CC(CN2C[C@H]3C[C@H](Nc4nnc(-c5cnccc5C(F)(F)F)cc4OC)C[C@H]3C2)CC([2H])([2H])O1` [Compound 23, (3aR,5s,6aS)-N-(4-methoxy-6-(4-(trifluoromethyl)pyridin-3-yl)pyridazin-3-yl)-2-((tetrahydro-2H-pyran-4-yl-2,2,6,6-d4)methyl)octahydrocyclopenta[c]pyrrol-5-amine]: the remaining activity at 30 µM came to 2% and the half-inhibitory concentration (IC50) is 3.9 nM.

For `[2H]C([2H])([C@@H]1CCCOC1)N1C[C@H]2C[C@H](Nc3ccc(-c4cnccc4C(F)(F)F)nn3)C[C@H]2C1` [Compound 24, (3aR,5s,6aS)-2-(((S)-tetrahydro-2H-pyran-3-yl)methyl-d2)-N-(6-(4-(trifluoromethyl)pyridin-3-yl)pyridazin-3-yl)octahydrocyclopenta[c]pyrrol-5-amine], the remaining activity at 30 µM came to 3% and the IC50 was 5.5 nM.

On to `[2H]C([2H])([C@H]1CCCOC1)N1C[C@H]2C[C@H](Nc3ccc(-c4cnccc4C(F)(F)F)nn3)C[C@H]2C1` [Compound 25, (3aR,5s,6aS)-2-(((R)-tetrahydro-2H-pyran-3-yl)methyl-d2)-N-(6-(4-(trifluoromethyl)pyridin-3-yl)pyridazin-3-yl)octahydrocyclopenta[c]pyrrol-5-amine], for which the remaining activity at 30 µM was 6% and the IC50 came out at 35 nM.

For `[2H]C([2H])(C1CCOCC1)N1C[C@H]2C[C@H](Nc3nnc(-c4cnccc4C(F)(F)F)cc3C(F)F)C[C@H]2C1` [Compound 26, (3aR,5s,6aS)-N-(4-(difluoromethyl)-6-(4-(trifluoromethyl)pyridin-3-yl)pyridazin-3-yl)-2-((tetrahydro-2H-pyran-4-yl)methyl-d2)octahydrocyclopenta[c]pyrrol-5-amine], the remaining activity at 30 µM came to 6% and the IC50 is 1.3 nM.

With `[2H]C([2H])(C1CCCOCC1)N1C[C@H]2C[C@H](Nc3ccc(-c4cnccc4C(F)(F)F)nn3)C[C@H]2C1` (stereo partly drawn) [Compound 28, (3aR,5s,6aS)-2-(oxepan-4-ylmethyl-d2)-N-(6-(4-(trifluoromethyl)pyridin-3-yl)pyridazin-3-yl)octahydrocyclopenta[c]pyrrol-5-amine], the remaining activity at 30 µM came to 4% and the IC50 amounted to 2.7 nM.

Consider `[2H]C([2H])(CC1CCOCC1)N1C[C@H]2C[C@H](Nc3ccc(-c4cnccc4C(F)(F)F)nn3)C[C@H]2C1` [Compound 31, (3aR,5s,6aS)-2-(2-(tetrahydro-2H-pyran-4-yl)ethyl-1,1-d2)-N-(6-(4-(trifluoromethyl)pyridin-3-yl)pyridazin-3-yl)octahydrocyclopenta[c]pyrrol-5-amine], for which the remaining activity at 30 µM worked out at 5% and the IC50 is 0.8 nM.
